According to the Kinase Knowledgebase extract (Sharma et al. 2016):

Assays:
Assay in all cases: Enzyme Assay
ROCK2 (human) = ROCK2 (human) (UniProt O75116)
CDK2 (human) = CDK2 (human) (UniProt P24941)
MAPK14 (human) = MAPK14 (human) (UniProt Q16539)
MAPK14 (human), sequence (Q16539 whole entry, looked up): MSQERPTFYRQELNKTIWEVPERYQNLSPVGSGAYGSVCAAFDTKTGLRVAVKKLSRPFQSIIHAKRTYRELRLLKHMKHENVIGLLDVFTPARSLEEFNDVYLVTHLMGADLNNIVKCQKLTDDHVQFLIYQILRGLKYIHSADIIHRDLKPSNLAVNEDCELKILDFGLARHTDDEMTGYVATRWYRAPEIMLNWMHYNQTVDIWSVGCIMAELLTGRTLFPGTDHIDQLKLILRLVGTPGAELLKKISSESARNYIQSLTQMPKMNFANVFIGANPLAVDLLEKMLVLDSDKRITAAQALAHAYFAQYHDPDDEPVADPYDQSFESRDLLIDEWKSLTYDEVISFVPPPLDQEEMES

ROCK2 (human), sequence (O75116 whole entry, looked up): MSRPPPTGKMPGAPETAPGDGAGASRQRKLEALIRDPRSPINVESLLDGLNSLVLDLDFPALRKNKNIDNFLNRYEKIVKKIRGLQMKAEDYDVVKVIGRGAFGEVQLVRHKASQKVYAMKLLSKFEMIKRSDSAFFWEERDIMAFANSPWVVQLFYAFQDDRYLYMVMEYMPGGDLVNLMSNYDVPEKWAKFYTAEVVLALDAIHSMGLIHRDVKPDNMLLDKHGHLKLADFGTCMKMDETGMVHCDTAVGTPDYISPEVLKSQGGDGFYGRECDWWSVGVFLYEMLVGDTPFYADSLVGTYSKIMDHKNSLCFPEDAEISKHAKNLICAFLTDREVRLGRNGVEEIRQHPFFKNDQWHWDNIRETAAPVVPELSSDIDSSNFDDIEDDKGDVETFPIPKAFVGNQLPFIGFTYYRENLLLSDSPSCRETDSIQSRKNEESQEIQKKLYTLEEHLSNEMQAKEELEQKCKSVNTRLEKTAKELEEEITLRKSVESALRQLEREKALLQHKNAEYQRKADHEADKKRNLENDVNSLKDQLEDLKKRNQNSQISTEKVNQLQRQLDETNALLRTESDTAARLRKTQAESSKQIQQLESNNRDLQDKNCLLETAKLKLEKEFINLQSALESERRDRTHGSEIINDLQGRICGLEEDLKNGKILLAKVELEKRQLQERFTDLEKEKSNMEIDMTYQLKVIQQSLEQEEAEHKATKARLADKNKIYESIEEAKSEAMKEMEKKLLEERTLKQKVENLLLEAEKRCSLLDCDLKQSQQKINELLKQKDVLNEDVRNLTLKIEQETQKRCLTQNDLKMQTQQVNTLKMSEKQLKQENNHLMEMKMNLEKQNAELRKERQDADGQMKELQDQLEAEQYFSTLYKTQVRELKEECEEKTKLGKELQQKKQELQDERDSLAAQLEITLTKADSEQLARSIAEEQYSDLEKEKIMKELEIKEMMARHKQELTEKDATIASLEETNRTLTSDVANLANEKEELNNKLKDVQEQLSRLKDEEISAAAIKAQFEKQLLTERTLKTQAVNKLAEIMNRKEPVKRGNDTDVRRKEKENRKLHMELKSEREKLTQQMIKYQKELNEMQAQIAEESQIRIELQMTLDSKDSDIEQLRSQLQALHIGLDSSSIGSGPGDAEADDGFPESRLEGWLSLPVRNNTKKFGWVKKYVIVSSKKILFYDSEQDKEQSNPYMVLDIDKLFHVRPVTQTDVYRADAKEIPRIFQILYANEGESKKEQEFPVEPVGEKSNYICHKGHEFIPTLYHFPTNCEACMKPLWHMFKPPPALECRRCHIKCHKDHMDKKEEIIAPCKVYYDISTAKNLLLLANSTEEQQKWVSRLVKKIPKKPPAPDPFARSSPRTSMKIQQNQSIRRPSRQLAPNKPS

SMILES	Ki (ROCK2 (human)) [nM]	Ki (CDK2 (human)) [nM]	Ki (MAPK14 (human)) [nM]
O=c1cc(-c2ccc(F)cc2)[nH]c2c(-c3ccc(F)cc3)cnn12	> 7940		
Oc1ccc(-c2nc(-c3ccc(F)cc3)c(-c3ccncc3)[nH]2)cc1	> 3980		
CCOC(=O)c1c(NC(=O)C2C(C)(C)C2(C)C)sc2cnccc12		1000	
O=C(Nc1n[nH]c2ccc(-c3cn(Cc4ccccc4)nn3)cc12)c1cc(F)ccc1F	> 5010	25.1	
NC(=O)c1ccc(-c2ccncc2)cc1NCc1cccc(F)c1	5010	3160	
O=[N+]([O-])c1cccc(-c2nnc3ccc(N4CCCCC4)nn23)c1	> 7940	631	
c1ccc(-c2n[nH]cc2-c2ccncc2)cc1		12600	
Nc1noc2cccc(-c3cccc(O)c3)c12	251		
CN(C)CCCOc1cc(-c2ccncc2)cc2[nH]nc(N)c12	251	3160	
N#Cc1ccc2[nH]c(O)c(-c3ccc(CN4CCOCC4)cn3)c2c1	> 6310	1000	
CN1CCN(c2nc(C3=C(c4c[nH]c5ccccc45)C(=O)NC3=O)c3ccccc3n2)CC1	> 7940	126	
NC(=O)c1ccc(-c2nc(-c3ccc4c(c3)OCO4)c(-c3ccccn3)[nH]2)cc1	> 3980		
NC(=O)c1ccc(Nc2ncnc3[nH]cc(-c4ccccc4)c23)cc1	251	501	
COCC(C)Nc1cc(-c2c[nH]c3ncccc23)cc(Cl)n1 (stereo unspecified)	7.94	158	
Nc1n[nH]c2ccc(-c3nnn(Cc4ccccc4)c3C3CC3)cc12	20	79.4	
O=C1CN=C(c2cccc(Cl)c2)c2c(sc3c2CCCC3)N1		7940	
C=CCNc1cc(-c2c[nH]c3ncccc23)cc(Cl)n1	12.6	100	
Nc1ccc2cc(NCCc3ccccc3)cc(Nc3ncccn3)c2n1			2510
Cc1c(C=O)c(O)n2c(nc3ccccc32)c1C#N	> 7940		
COc1ccc(C(=O)Nc2n[nH]c3ccc(-c4cn(Cc5ccccc5)nn4)cc23)cc1OC	794	12.6	
CN(C)c1cc(-c2ccncc2)cc2[nH]nc(N)c12	79.4	631	
Cc1ccc2nccc(NC(=O)Nc3cccc(C(F)(F)F)n3)c2c1	> 6310	79.4	
NC(=O)c1ccc(-c2ccnc(N)n2)cc1N1CCCCC1	1580	1260	
CC(C)(O)CNc1cc(-c2c[nH]c3ncccc23)cc(Cl)n1	15.8	251	
Cc1cccc(CNc2cc(-c3c[nH]c4ncccc34)ncn2)c1	12.6	39.8	

SMILES	Ki (ROCK2 (human)) [nM]	Ki (CDK2 (human)) [nM]	Ki (MAPK14 (human)) [nM]
Nc1n[nH]c2ccc(-c3cc(Cc4ccccc4)no3)cc12	25.1	200	
Cc1cc(Nc2cc(N3CCN(C)CC3)nc(Sc3ccc(NC(=O)C4CC4)cc3)n2)[nH]n1	> 3980		
CC(C)(C)c1cc(NC(=O)C(=O)c2cccc3ccccc23)n(-c2ccc(OCCC(N)=O)cc2)n1			631
OCCCCNc1cc(-c2c[nH]c3ncccc23)cc(Cl)n1	15.8	126	
CC(C)(C)Oc1cc(-c2ccncc2)cc2[nH]nc(N)c12	50.1	126	
O=C1c2ccccc2-c2n[nH]c3cccc1c23	3160	79.4	
COc1ccccc1C(=O)Nc1n[nH]c2ccc(-c3cn(Cc4ccccc4)nn3)cc12	> 7940	251	
Nc1ncnc2c1c(-c1cnc3[nH]ccc3c1)nn2C1CCCC1	39.8		
NCCCn1cc(-c2cc(-c3cc4ccccc4s3)c3[nH]ncc3c2)c2nc(N)ncc21	63.1	12.6	
Cc1ccccc1-c1c(-c2ccc3[nH]nc(C)c3c2)nnn1Cc1ccccc1		3.98	
COc1ccc(C2=NNc3cccc4c(OC)ccc2c34)cc1OC			501
O=C(Nc1cccc(C(F)(F)F)n1)Nc1ccnc2ccc(F)cc12	> 3980		
Clc1cc(NC2CCCCC2)nc(-c2c[nH]c3ncccc23)n1	> 316		
CCCn1c(=O)c2[nH]c(-c3cnn(Cc4cccc(C(F)(F)F)c4)c3)nc2n(CC)c1=O		5010	
Cc1cc(=O)[nH]c2[nH]nc(-c3cccc(C(F)(F)F)c3)c12			398
c1ccc(Cn2cc(-c3ccc4[nH]nc(-c5cn(Cc6ccccc6)nn5)c4c3)nn2)cc1	126	5.01	
NC1CCCCC1Nc1nccc(Nc2ccccc2C(=O)O)n1 (stereo unspecified)	> 7940		
Cc1cc(=O)n2[nH]cc(C(=O)NCc3ccccc3)c2n1	2510		
O=c1cc(-c2cccc(F)c2)[nH]c2c(-c3ccc(F)cc3)cnn12	> 7940		
O=C1Nc2ccccc2Nc2cc(-c3ccncc3F)ccc21	126	398	
CS(=O)(=O)N(Cc1ccc2[nH]c(=O)c3cccn3c2c1)C1CC1	> 7940		
Cn1cncc1C(OCc1c(-c2ccc(OC(F)(F)F)cc2)cc(C#N)c(=O)n1C)c1ccc(C#N)cc1 (stereo unspecified)	> 7940		
CCCCCCCCCCCCOc1ccc(NC(=N)N)cc1NC(=N)N	3160	5010	
CNCCOc1cncc(-c2ccc3[nH]nc(C)c3c2)c1	20	501	
CS(=O)(=O)Nc1ccccc1-c1ccc2c(c1)Nc1ccccc1NC2=O		6310	
